# ± gives the expanded uncertainty stated by the source.
# Conditions: Liquid, Closed cell (Static) method
smiles,measurement,setting,value
"C=CCCC=C [1,5-hexadiene]",vapor or sublimation pressure,313.05 K,56 ± 20 kPa
same,vapor or sublimation pressure,322.92 K,78 ± 20 kPa
same,vapor or sublimation pressure,333 K,109 ± 20 kPa
same,vapor or sublimation pressure,342.76 K,147 ± 20 kPa
same,vapor or sublimation pressure,352.84 K,197 ± 20 kPa
same,vapor or sublimation pressure,362.75 K,256 ± 20 kPa
same,vapor or sublimation pressure,369.36 K,303 ± 20 kPa
C=CCCl [3-chloro-1-propene],vapor or sublimation pressure,298.88 K,55 ± 20 kPa
same,vapor or sublimation pressure,308.19 K,75 ± 20 kPa
same,vapor or sublimation pressure,313.35 K,90 ± 20 kPa
same,vapor or sublimation pressure,323.13 K,125 ± 20 kPa
same,vapor or sublimation pressure,323.19 K,126 ± 20 kPa
same,vapor or sublimation pressure,323.75 K,126 ± 20 kPa
same,vapor or sublimation pressure,333.47 K,173 ± 20 kPa
same,vapor or sublimation pressure,343.12 K,228 ± 20 kPa
same,vapor or sublimation pressure,343.83 K,233 ± 20 kPa
same,vapor or sublimation pressure,352.3 K,294 ± 20 kPa
same,vapor or sublimation pressure,353.05 K,301 ± 20 kPa
same,vapor or sublimation pressure,363.03 K,389 ± 20 kPa
same,vapor or sublimation pressure,369.15 K,454 ± 20 kPa
